Data on one molecule can be found in US8377913B2, “Vitamin D receptor activators and methods of making” (AbbVie Inc., priority 2007, dated 2013).

In test [1] the test system is VDR (VDRE-luciferase-reporter construct). As to the kind of experiment: VDRE Reporter Gene Assay in HEK cells with stable expression of VDR. The class given is cell-based. The conditions noted are these: Homo sapiens, HEK293, 24 hours. As to the method:
Compound activity was also assessed by looking at a Vitamin D Response Element (VDRE) reporter gene assay, Human Embryonic Kidney cells (HEK cells) with a stable expression of VDR were cultured in 96-well plates at ˜4×10^5 cells/mL (100 μL/well) in DMEM medium containing 10% fetal calf serum. Cells were transfected with 0.2 μg per well of a VDRE-luciferase-reporter construct (from Y. Li, University of Chicago) and then treated with test agents at indicated concentrations for 24 hours. The luciferase activity was then measured following the manufacturer's instructions (Promega, Madison, Wis.).

Test [2] has as its system Human promyelocytic leukemia (HL60) cells. Kind of test: HL-60 Differentiation. Format: cell-based. The following applies: HL-60, 96 h, four days incubation, NBT, absorbance 570 nm. The procedure: Human promyelocytic leukemia (HL60) cells were obtained from the American Type Culture Collection (ATCC Cat. # CCL-240, Manassas, Va.). Cells were maintained in RPMI 1640 medium (commercially available from Invitrogen, Carlsbad, Calif.) containing 10% fetal bovine serum (commercially available from Invitrogen, Carlsbad, Calif.) at 37° C. with 5% CO2. Cells were passaged weekly and were not allowed to become >90% confluent. For the assay, cells were plated at 5×10^5 cells per well in 200 uL media. Test compounds were diluted in media in concentrations between 10^−6-10^−10 M and then added to the appropriate wells. Cells were then incubated for four days at 37° C. in 5% CO2 atmosphere. After incubation, media was aspirated from each well and 75 uL of NBT solution (nitroblue tetrazolinium: 200 ng/mL PMA (phorbol 12-myrystate 13-acetate) and 2 mg/ml NBT (nitroblue tetrazolium) in distilled H2O) was added to each well followed by further incubation for 2 hours at 37° C. Following incubation, 150 uL lysis buffer (225 mL dimethylformamide, 67.5 g SDS). PMA stock solution (2 mg/ml in ethanol) was added to each well and the plate was allowed to sit at room temperature for 4 hours. HL-60 cell differentiation was assayed, Effect of each compound on cell growth was examined as a function of time; absorbance in each well was measured at 570 nm.

`C=C1[C@H](O)CC(=C/C=C2\CCC[C@]3(C)[C@@H]([C@H](C)COC(=O)C(C)(C)C)CC[C@@H]23)C[C@H]1O` [Example 1, (2S)-2-[(1R,3R,7E, 17β)-1,3-dihydroxy-2-methylene-9,10-secoestra-5,7-dien-17-yl]propyl pivalate]: the results for the concentration giving a half-maximal response (EC50) in test [1] and in test [2] were 0.4 nM and 1.9 nM, respectively.
